Experimental data as given in patent US20240116985A1, “STAPLED PEPTIDES AND METHODS THEREOF” (priority 2020, published 2024).

These compounds were tested against T1, full-length beta-Catenin (Uniprot ID P35222) (Homo sapiens, UniProt P35222) (assay: Fluorescence polarization IC50 (beta-catenin / 5FAM-TCF4 10-53 competition)). Settings: beta-Catenin FP IC50 (nM), fluorescence polarization.
T1 construct: 10 nM full-length beta-Catenin (Uniprot ID P35222)
T1 sequence (P35222 1-781): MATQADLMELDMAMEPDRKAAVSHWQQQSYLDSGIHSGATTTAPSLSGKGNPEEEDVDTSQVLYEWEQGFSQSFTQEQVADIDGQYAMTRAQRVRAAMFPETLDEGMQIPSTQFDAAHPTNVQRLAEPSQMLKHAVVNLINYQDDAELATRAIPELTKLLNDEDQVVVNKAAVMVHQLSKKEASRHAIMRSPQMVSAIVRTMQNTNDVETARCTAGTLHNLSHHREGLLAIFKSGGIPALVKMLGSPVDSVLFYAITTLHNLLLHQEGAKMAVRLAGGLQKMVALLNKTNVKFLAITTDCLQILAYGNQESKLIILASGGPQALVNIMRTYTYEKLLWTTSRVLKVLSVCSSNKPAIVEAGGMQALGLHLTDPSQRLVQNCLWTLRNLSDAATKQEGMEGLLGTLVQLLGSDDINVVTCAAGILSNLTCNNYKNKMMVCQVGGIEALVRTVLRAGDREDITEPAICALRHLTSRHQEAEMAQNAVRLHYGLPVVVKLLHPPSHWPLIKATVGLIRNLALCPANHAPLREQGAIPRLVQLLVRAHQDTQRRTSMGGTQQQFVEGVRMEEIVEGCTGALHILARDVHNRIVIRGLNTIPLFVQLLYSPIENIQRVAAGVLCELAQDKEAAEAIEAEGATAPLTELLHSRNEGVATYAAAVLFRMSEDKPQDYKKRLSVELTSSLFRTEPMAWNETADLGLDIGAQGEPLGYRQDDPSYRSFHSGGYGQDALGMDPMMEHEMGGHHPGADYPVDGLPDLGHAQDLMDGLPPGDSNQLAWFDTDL
Format: binding
Compound `CC(=O)N1CC2CC1C(=O)N[C@@H](CC(=O)O)C(=O)N[C@@H](CC(C)(C)C)C(=O)NC1(CCCCCCCCOC(=O)N3CC[C@@](C(=O)N[C@@H](Cc4ccsc4)C(=O)N[C@@H](Cc4csc5ccccc45)C(=O)N[C@@H](CCC(N)=O)C(N)=O)(C3)NC(=O)[C@H](CC(C)C)NC(=O)[C@H](Cc3ccccc3)NC(=O)[C@H](C)NC(=O)[C@H](C)NC(=O)[C@H](CN(CC(=O)O)CC(F)(F)F)NC(=O)[C@H](CC(=O)O)NC1=O)CCCCCCOc1cccc(c1)CC(=O)O2` (stereo partly drawn) [I-2406, Ac-HypPAc3OAllyl-Asp-Npg-B5-Asp-TfeGA-Ala-Ala-Phe-Leu-PyrS2-3Thi-BztA-Gln-NH2] has an IC50 of 242 nM.

Same assay, conditions: beta-Catenin FP IC50, fluorescence polarization
In the case of `CC(=O)N1CCC[C@]12CC=CCCCC1(CCCC=CCCCOC(=O)N3CC[C@@](C(=O)N[C@@H](Cc4ccsc4)C(=O)N[C@@H](Cc4csc5ccccc45)C(=O)N[C@@H](CC(C)C)C(N)=O)(C3)NC(=O)[C@H](CC(C)C)NC(=O)[C@H](Cc3ccccc3)NC(=O)[C@H](C)NC(=O)[C@H](C)NC(=O)[C@H](CC(=O)O)NC(=O)[C@H](CC(=O)O)NC1=O)NC(=O)[C@H](CC(N)=O)NC(=O)[C@H](CC(=O)O)NC2=O` (stereo partly drawn) [I-1413, Ac-PL3-Asp-Asn-B5-Asp-Asp-Ala-Ala-Phe-Leu-PyrS2-3Thi-BztA-Leu-NH2], the IC50 is reported as 74 nM.

Same assay, conditions: fluorescence polarization; read-out: beta-Catenin FP IC50
`CC(=O)N1CCC[C@]12CC=CCCCC1(CCCC=CCCCOC(=O)N3CC[C@@](C(=O)N[C@@H](Cc4ccsc4)C(=O)N[C@@H](Cc4csc5ccccc45)C(=O)N[C@H](C(N)=O)C(C)C)(C3)NC(=O)[C@H](CC(C)C)NC(=O)[C@H](Cc3ccccc3)NC(=O)[C@H](C)NC(=O)[C@H](C)NC(=O)[C@H](CN(CC(=O)O)CC(F)(F)F)NC(=O)[C@H](CC(=O)O)NC1=O)NC(=O)[C@H](CC(C)(C)C)NC(=O)[C@H](CC(=O)O)NC2=O` (stereo partly drawn) [I-1751, Ac-PL3-Asp-Npg-B5-Asp-TfeGA-Ala-Ala-Phe-Leu-PyrS2-3Thi-BztA-Val-NH2] showed an IC50 of 104 nM.
Compound `CC(=O)N1CCC[C@]12CC=CCCCC1(CCCC=CCCCOC(=O)N3CC[C@@](C(=O)N[C@@H](Cc4ccccc4)C(=O)N[C@@H](Cc4csc5ccccc45)C(=O)N[C@@H](CCC(N)=O)C(N)=O)(C3)NC(=O)[C@H](CC(C)C)NC(=O)[C@H](Cc3ccccc3)NC(=O)[C@H](C)NC(=O)[C@H](CCCCNC(C)C)NC(=O)[C@H](CCCCN)NC(=O)[C@H](CC(=O)O)NC1=O)NC(=O)[C@H](CC1CCCCC1)NC(=O)[C@H](CC(N)=O)NC2=O` (stereo partly drawn) [I-2347, Ac-PL3-Asn-Cha-B5-Asp-Lys-iPrLys-Ala-Phe-Leu-PyrS2-Phe-BztA-Gln-NH2] has an IC50 of 5630 nM.
Compound `CC[C@@H]1NC(=O)[C@H](Cc2ccccc2)NC(=O)[C@H](C)NC(=O)C(C)(C)NC(=O)[C@H](Cc2cccc(C(=O)O)c2)NC(=O)[C@H](CC(=O)O)NC(=O)C2(CCCC=CCCCOC(=O)N3CC[C@@](C(=O)N[C@@H](Cc4ccsc4)C(=O)N[C@@H](Cc4csc5ccccc45)C(=O)N[C@@H](CCC(=O)N4CCCCC4)C(=O)N[C@@H](C)C(N)=O)(C3)NC1=O)CCCC=CC[C@]1(CCCN1C(C)=O)C(=O)N[C@@H](CC(=O)O)C(=O)N[C@@H](CC(C)(C)C)C(=O)N2` (stereo partly drawn) [I-2476, Ac-PL3-Asp-Npg-B5-Asp-3COOHF-Aib-Ala-Phe-Abu-PyrS2-3Thi-BztA-[Pip]GlnR-Ala-NH2] has an IC50 of 7 nM.
In the case of `CCSSCCOC(=O)CC[C@@H]1NC(=O)[C@H](CC(=O)O)NC(=O)C2(CCCC=CCCCOC(=O)N3CC[C@@](C(=O)N[C@@H](Cc4ccsc4)C(=O)N[C@@H](Cc4csc5ccccc45)C(=O)N[C@@H](CCC(N)=O)C(N)=O)(C3)NC(=O)[C@H](CC(C)C)NC(=O)[C@H](Cc3ccccc3)NC(=O)[C@H](C)NC(=O)[C@H](C)NC1=O)CCCC=CC[C@]1(CCCN1C(C)=O)C(=O)N[C@@H](CC(=O)O)C(=O)N[C@@H](CC(C)(C)C)C(=O)N2` (stereo partly drawn) [I-1966, Ac-PL3-Asp-Npg-B5-Asp-[EtSSEt]GluE-Ala-Ala-Phe-Leu-PyrS2-3Thi-BztA-Gln-NH2], the IC50 is reported as 566 nM.
In the case of `CC(=O)N1CCC[C@]12CC=CCCCC1(CCCC=CCCCOC(=O)N3CC[C@@](C(=O)N[C@@H](Cc4ccsc4)C(=O)N[C@@H](Cc4c[nH]c5cc(Cl)ccc45)C(=O)N[C@@H](CCC(N)=O)C(N)=O)(C3)NC(=O)[C@H](CC(C)C)NC(=O)[C@H](Cc3ccccc3)NC(=O)[C@H](C)NC(=O)[C@H](C)NC(=O)[C@H](CC(=O)O)NC(=O)[C@H](CC(=O)O)NC1=O)NC(=O)[C@H](CC(C)(C)C)NC(=O)[C@H](CC(=O)O)NC2=O` (stereo partly drawn) [I-1435, Ac-PL3-Asp-Npg-B5-Asp-Asp-Ala-Ala-Phe-Leu-PyrS2-3Thi-6C1W-Gln-NH2], the IC50 is reported as 90 nM.
With `CC(C)C[C@H](NC(=O)[C@]12CCN(C1)C(=O)OCCCCCCCCC1(CCCCCCCCC(=O)N3CCC[C@@]3(C)C(=O)N[C@@H](CC(=O)O)C(=O)N1)C(=O)N[C@@H](C)C(=O)N[C@@H](CC(=O)O)C(=O)N[C@@H](CC(=O)O)C(=O)N[C@@H](C)C(=O)N[C@@H](C)C(=O)N[C@@H](Cc1ccccc1)C(=O)N2)C(=O)N[C@@H](Cc1ccsc1)C(=O)N[C@@H](Cc1csc2ccccc12)C(=O)N[C@@H](CCC(N)=O)C(N)=O` (stereo partly drawn) [I-2600, 5hexenyl-MePro-Asp-B5-Ala-Asp-Asp-Ala-Ala-Phe-PyrS2-Leu-3Thi-BztA-Gln-NH2] the IC50 was 923 nM.
`CC(=O)N1CCC[C@]12CCCCCCC1(CCCCCCCCOC(=O)N3CC[C@@](C(=O)N[C@@H](Cc4ccsc4)C(=O)N[C@@H](Cc4csc5ccccc45)C(=O)N[C@H](C(N)=O)C(C)C)(C3)NC(=O)[C@H](CC(C)C)NC(=O)[C@H](Cc3ccccc3)NC(=O)[C@H](C)NC(=O)[C@H](CCCCNC(C)C)NC(=O)[C@H](CN(CC(=O)O)CC(F)(F)F)NC(=O)[C@H](CC(=O)O)NC1=O)NC(=O)[C@H](CC(C)(C)C)NC(=O)[C@H](CC(=O)O)NC2=O` (stereo partly drawn) [I-1769, Ac-PL3-Asp-Npg-B5-Asp-TfeGA-iPrLys-Ala-Phe-Leu-PyrS2-3Thi-BztA-Val-NH2] showed an IC50 of 419 nM.
In the case of `CC(=O)N(CC(=O)O)C[C@@H]1NC(=O)[C@H](CC(=O)O)NC(=O)C2(CCCC=CCCCOC(=O)N3CC[C@@](C(=O)N[C@@H](Cc4ccsc4)C(=O)N[C@@H](Cc4csc5ccccc45)C(=O)N[C@@H](CCC(N)=O)C(N)=O)(C3)NC(=O)[C@H](CC(C)C)NC(=O)[C@H](Cc3ccccc3)NC(=O)[C@H](C)NC(=O)[C@H](C)NC1=O)CCCC=CC[C@]1(CCCN1C(C)=O)C(=O)N[C@@H](CC(=O)O)C(=O)N[C@@H](CC(C)(C)C)C(=O)N2` (stereo partly drawn) [I-1729, Ac-PL3-Asp-Npg-B5-Asp-[Ac]GA-Ala-Ala-Phe-Leu-PyrS2-3Thi-BztA-Gln-NH2], the IC50 is reported as 9 nM.
`CC(=O)N1CCC[C@]12CC=CCCCC1(CCCC=CCCCOC(=O)N3CC[C@@](C(=O)N[C@@H](Cc4ccsc4)C(=O)N[C@@H](Cc4csc5ccccc45)C(=O)N[C@@H](CCC(N)=O)C(=O)N[C@H](CO)CC(C)C)(C3)NC(=O)[C@H](CC(C)C)NC(=O)[C@H](Cc3ccccc3)NC(=O)[C@H](C)NC(=O)[C@H](C)NC(=O)[C@H](CN(CC(=O)O)CC(F)(F)F)NC(=O)[C@H](CC(=O)O)NC1=O)NC(=O)[C@H](CC(C)(C)C)NC(=O)[C@H](CC(=O)O)NC2=O` (stereo partly drawn) [I-1682, Ac-PL3-Asp-Npg-B5-Asp-TfeGA-Ala-Ala-Phe-Leu-PyrS2-3Thi-BztA-Gln-Leuo1] gave an IC50 of 41 nM.
`CC(=O)N1CCC[C@]12CC=CCCCC1(CCCC=CCCCOC(=O)N3CC[C@@](C(=O)N[C@@H](Cc4ccsc4)C(=O)N[C@@H](Cc4csc5ccccc45)C(=O)N[C@@H](CCC(N)=O)C(N)=O)(C3)NC(=O)[C@H](Cn3cc(CN4CCS(=O)(=O)CC4)nn3)NC(=O)[C@H](Cc3ccccc3)NC(=O)[C@H](C)NC(=O)[C@H](C)NC(=O)[C@H](CN(CC(=O)O)CC(F)(F)F)NC(=O)[C@H](CC(=O)O)NC1=O)NC(=O)[C@H](CC(C)(C)C)NC(=O)[C@H](CC(=O)O)NC2=O` (stereo partly drawn) [I-1868, Ac-PL3-Asp-Npg-B5-Asp-TfeGA-Ala-Ala-Phe-[SO2MorphCH2]TriAzDap-PyrS2-3Thi-BztA-Gln-NH2] gave an IC50 of 12 nM.
`CC(=O)N1CCC[C@]12CC=CCCCC1(CCCC=CCCCOC(=O)N3CC[C@@](C(=O)N[C@@H](Cc4cccc(C)c4)C(=O)N[C@@H](Cc4csc5ccccc45)C(=O)N[C@@H](CCC(N)=O)C(N)=O)(C3)NC(=O)[C@H](CC(N)=O)NC(=O)[C@H](Cc3ccccc3)NC(=O)[C@H](C)NC(=O)[C@H](C)NC(=O)[C@H]([C@@H](C)O)NC(=O)[C@H](CC(N)=O)NC1=O)NC(=O)[C@H](CC(C)(C)C)NC(=O)[C@H](CC(=O)O)NC2=O` (stereo partly drawn) [I-1739, Ac-PL3-Asp-Npg-B5-Asn-Thr-Ala-Ala-Phe-Asn-PyrS2-3MeF-BztA-Gln-NH2] gave an IC50 of 3650 nM.
Work on `CC(=O)N1CCC[C@]12CC=CCCCC1(CCCC=CCCCOC(=O)N3CC[C@@](C(=O)N[C@@H](Cc4ccsc4)C(=O)N[C@@H](Cc4csc5ccccc45)C(=O)N[C@@H](CCC(N)=O)C(N)=O)(C3)NC(=O)[C@H](CC(C)C)NC(=O)[C@H](Cc3ccccc3)NC(=O)[C@H](C)NC(=O)[C@H](C)NC(=O)[C@H](Cn3cc(CC4(C(=O)O)CC4)nn3)NC(=O)[C@H](CC(=O)O)NC1=O)NC(=O)[C@H](CC(C)(C)C)NC(=O)[C@H](CC(=O)O)NC2=O` (stereo partly drawn) [I-2482, Ac-PL3-Asp-Npg-B5-Asp-[CH2CCpCO2H]TriAzDap-Ala-Ala-Phe-Leu-PyrS2-3Thi-BztA-Gln-NH2] yielded an IC50 of 5 nM.
